Assay results as given in patent publication US20240201204A1, “Biomarker and Druggable Target of Neurodegeneration” (University Hospitals Cleveland Medical Center, priority 2020, published 2024).

Legend:
Assay type in all cases: in vivo, mouse
degenerating axons = assay: Axon degeneration after TBI (silver staining); conditions: vs. TBI+Vehicle
Method: (§1) Drug preparation and administration: CGP3466B (Sigma-Aldrich, SML1941) was dissolved in DMSO and then diluted in sterile saline. The final working stock was 0.0014 mg/ml for administering the 0.014 mg/kg dose. Intraperitoneal administration of CGP3466B was initiated 15 min or 24 h after injury, and tissues were harvested 6 h (for SNO-GAPDH, SNO-SIRT1 measurement) or 2 weeks (for ac-tau measurement) later, respectively. Salsalate (AdipoGen, AG-CR1-3574) was dissolved in DMSO and then diluted in sterile PBS. The final working stocks were as follows: 2.5 mg/ml (25 mg/kg dose), 1 mg/ml (10 mg/kg dose), 0.5 mg/ml (5 mg/kg dose). Daily intraperitoneal administration of salsalate was initiated 24 hr after injury and continued throughout behavioral testing. P7C3-A20 and FK866 (Sigma-Aldrich, F8557) were first dissolved in 1 vol of DMSO, followed by addition of 4 vol of Kolliphor and vigorously vortexing. The solution was then diluted with 30 vol of filtered 5% dextrose (pH 7.0). EX527 (Selleckchem, S1541) was dissolved in 1% DMSO+30% polyethylene glycol+1% Tween 80. Daily intraperitoneal administration of P7C3-A20 was initiated 24 hr after poly-traumatic brain injury. EX527 (10 mg/kg) was administer once a day and FK866 was treated twice per day, with the first injection given at the same time as P7C3-A20 (20 mg/kg) and the second injection given 6 h later (LoCoco et al., 2017 eLife). […]

p300/CBP = p300/CBP activity after TBI (acetylation of p300/CBP, H2AK5, H3K18; western blot); conditions: vs. TBI+Vehicle
Method: (§2) Drug preparation and administration: CGP3466B (Sigma-Aldrich, SML1941) was dissolved in DMSO and then diluted in sterile saline. The final working stock was 0.0014 mg/ml for administering the 0.014 mg/kg dose. Intraperitoneal administration of CGP3466B was initiated 15 min or 24 h after injury, and tissues were harvested 6 h (for SNO-GAPDH, SNO-SIRT1 measurement) or 2 weeks (for ac-tau measurement) later, respectively. Salsalate (AdipoGen, AG-CR1-3574) was dissolved in DMSO and then diluted in sterile PBS. The final working stocks were as follows: 2.5 mg/ml (25 mg/kg dose), 1 mg/ml (10 mg/kg dose), 0.5 mg/ml (5 mg/kg dose). Daily intraperitoneal administration of salsalate was initiated 24 hr after injury and continued throughout behavioral testing. P7C3-A20 and FK866 (Sigma-Aldrich, F8557) were first dissolved in 1 vol of DMSO, followed by addition of 4 vol of Kolliphor and vigorously vortexing. The solution was then diluted with 30 vol of filtered 5% dextrose (pH 7.0). EX527 (Selleckchem, S1541) was dissolved in 1% DMSO+30% polyethylene glycol+1% Tween 80. Daily intraperitoneal administration of P7C3-A20 was initiated 24 hr after poly-traumatic brain injury. EX527 (10 mg/kg) was administer once a day and FK866 was treated twice per day, with the first injection given at the same time as P7C3-A20 (20 mg/kg) and the second injection given 6 h later (LoCoco et al., 2017 eLife). Diflunisal was first dissolved in 1 vol of DMSO, followed by addition of 2 vol of Kolliphor and vigorously vortexing. The solution was then diluted with 7 vol of saline to the appropriate concentration for administration at 25, 50, or 100 mg/kg.
(§3) The pressure in the side not containing the mouse was increased to cause membrane rupture at 20 pounds per square inch (PSI), which generates an about 1-2 ms jet airflow of 137.9+/−13.79 kPa that passes through the animal's head. The head remains untethered in a padded holder, while the body is fully shielded by a metal tube. The jet of air produced upon membrane rupture provides a concussive injury, which is followed by acceleration/deceleration of the head and then exposure to the ensuing blast wave within an enclosed space.
(§4) Western blotting: Western blotting was performed as described previously (Min et al., 2010), with the 9AB antibody against acetylated-tau generated in the Gan laboratory. […] Lysates were centrifuged at 170,000 g at 4° C. for 15 min and at 18,000 g at 4° C. for 10 min, after which protein concentrations of supernatants were measured by bicinchoninic acid assay (Thermo Scientific, A53225). […]

tau [1] = assay: Tau mislocalization after TBI (tau and NeuN immunohistochemistry); conditions: vs. TBI+Vehicle
Method: as §2, §3
Immunohistochemistry: Mice were transcardially perfused with cold 1× phosphate-buffered saline (PBS) followed by 4% paraformaldehyde in PBS at pH 7.4 under anesthesia. Brains were carefully removed and post-fixed in 4% paraformaldehyde overnight at 4° C. Brains were immersed in 30% sucrose in PBS for 72 h at 4° C. and then rapidly frozen in 2-methylbutane pre-cooled to −20° C. with dry ice. Brains were cut coronally (40 μm) and sections were stored in cryoprotective solution (150 mM Ethylene glycol, 100 mM glycerol, 250 mM PBS) at −20° C. […]

tau [2] = assay: Tau phosphorylation at S262 after TBI (western blot); conditions: salsalate treatment after TBI, vs. Sham-Injury
Method: as §1, with “7.0).” for “7.0). EX527 (Selleckchem, S1541) was dissolved in 1% DMSO+30% polyethylene glycol+1% Tween 80. Daily intraperitoneal administration of P7C3-A20 was initiated 24 hr after poly-traumatic brain injury. EX527 (10 mg/kg) was administer once a day and FK866 was treated twice per day, with the first injection given at the same time as P7C3-A20 (20 mg/kg) and the second injection given 6 h later (LoCoco et al., 2017 eLife).”
as §4

IL-1β = IL-1β expression in cerebral cortex after TBI (qPCR); conditions: 25 mg/kg salsalate
Method: as §1

[3] = low-dose salsalate daily IP from 24 h after TBI

Structure (SMILES)	post-TBI axon degeneration (silver staining) (degenerating axons; CGP3466B 0.014 mg/kg IP daily)	ac-p300/CBP in cerebral cortex (p300/CBP; CGP3466B 0.014 mg/kg, after TBI)	post-TBI tau mislocalization (tau [1]; CGP3466B 0.014 mg/kg IP daily, initiated 24 hours after TBI)	phosphorylation of tau at S262 in hippocampus (tau [2])	TBI-induced increase of IL-1β in cerebral cortex (IL-1β)	post-TBI axonal degeneration (degenerating axons; [3])	ac-H2AK5 levels in cerebral cortex and hippocampus (p300/CBP; low-dose salsalate after TBI)	ac-H3K18 levels in cerebral cortex and hippocampus (p300/CBP; low-dose salsalate after TBI)	acetylation of p300/CBP (p300/CBP; low-dose salsalate after TBI)	post-TBI tau mislocalization (tau [1]; [3])
C#CCN(C)CC1=Cc2ccccc2Oc2ccccc21.O=C(O)/C=C\C(=O)O [CGP3466B]	protects mice from post-TBI axon degeneration	reduces ac-p300/CBP in cerebral cortex after TBI	protects mice from post-TBI tau mislocalization							
O=C(Oc1ccccc1C(=O)O)c1ccccc1O [salsalate]				remains significantly decreased in hippocampus	this increase is not attenuated	protects mice from post-TBI axonal degeneration	significantly reduced levels of ac-H2AK5 and ac-H3K18	significantly reduced levels of ac-H2AK5 and ac-H3K18	acetylation of p300/CBP was also significantly reduced	protects mice from post-TBI tau mislocalization
